{"source": "patent US20200024278A1", "about": "“COMPOSITION COMPRISING ANTIBIOTIC COMPOUND AND AN HETEROCYCLIC COMPOUND AND THEIR USE IN PREVENTING OR TREATING BACTERIAL INFECTIONS” (MUTABILIS, priority 2016, published 2020)", "tested_on": "PAE 27853", "assay_type": "cell-based, P. aeruginosa", "settings": "tntbc: Too numerous to be counted", "method": "Method 4: Determination of the Spontaneous Mutation Frequency of the Compounds Alone and Combined with Antibiotics.\nBacterial isolates (Table 3) were grown overnight at 35° C. on TSA plates (Becton-Dickinson and Company) in ambient air. After 24 h of incubation, isolated bacterial colonies were added to cation-adjusted Mueller-Hinton broth (ca-MHB; Becton-Dickinson and Company) and cultured for approximately 6 h at 35° C. The pre-culture was stopped once bacteria have reached an OD600 nm of 0.5 for 200 μL. The bacterial suspension was centrifuged at 4000 rpm for 20 min. The supernatant was then discarded and the bacterial pellet was dissolved in ca-MHB to obtain 10^9 to 10^10 CFU/mL. Assays including Fosfomycin were supplemented with 25 μg/ml of Glucose-6-phosphate. 100 μL of the adjusted bacterial suspension were spread on agar plates containing different concentrations of the compounds of the present invention alone or combined with an antibacterial (Table 1). The plates were incubated for 24-48 h at 35° C. in ambient air. CFU were numerated on each agar plate containing compound. The number of resistant colonies obtained was divided by the starting inoculum to give the frequency of spontaneous resistance for a given incubation time (24 and 48 h).", "note": "Like-named read-outs stand apart in the source and are kept apart here.", "data": [{"smiles": "O=C(O)c1cn(C2CC2)c2cc(N3CCNCC3)c(F)cc2c1=O", "note": "[CIP, Ciprofloxacin]", "values": [{"measurement": "Frequency of spontaneous resistance", "setting": "single agent at 4.MIC", "value": "5.1E−08"}, {"measurement": "Frequency of spontaneous resistance", "setting": "single agent at 8.MIC", "value": "4.0E−09"}]}]}
